# Measurements: patent publication US9708297B2, “CGRP receptor antagonists” (Eli Lilly and Company, priority 2015, dated 2017)
# Test system: CGRP receptor
# Experiment: Capsaicin-induced dermal blood flow (DBF), laser Doppler imaging, in nonhuman primates
# Type: in vivo
# Settings: 3 mg/kg orally, 90 min prior to capsaicin; cynomolgus NHP; compared to vehicle; p<0.003
# From the text: Capsaicin-induced dermal blood flow (DBF) may be used as a target engagement biomarker to assess CGRP receptor activity in nonhuman primates (NHPs). Methods are adapted from earlier published procedures [Hershey et al., Regulatory Peptides, Volume 127, Issue 1-3, pp. 71-77, 2005].
# Animal studies may be performed under protocols approved by the Covance Institutional Animal Care and Use Committee. Cynomolgus NHPs may be used given the close homology between NHP and human CGRP receptor. The study population may include healthy, CGRP antagonist naive cynomolgus NHP males weighing ˜3-4 kg.
# Cynomolgus NHPs are enrolled in the study based on prescreening for capsaicin responsiveness. […] NHPs are used in a cross over design in which all NHPs received all doses after a two week wash-out period. Total n=10 NHPs per group. […]
# Analysis and Statistics: LDI repeat scans are analyzed using Moor software v.5.2 (Moor Instruments, Wilmington, Del.) by region of interest signal analysis, and Microsoft Excel worksheets are used for averaging the signal from the regions of interest at a given time point. […] Analyzed data is entered into Graphpad PRISM® 4.0 for graphing and a repeated measurement mixed-effect model in SAS® 9.1 is used for statistical analysis. Data is expressed as mean+/−SD.
row,SMILES,group mean inhibition of capsaicin-induced blood flow increase [%]
1,"Cc1cc(CNC(=O)c2ccc([C@@H](C)[C@]3(C)CC(=O)NC3=O)cc2)cc(C)n1 [Example 1, N-[(2,6-dimethylpyridin-4-yl)methyl]-4-{(1R)-1-[(3S)-3-methyl-2,5-dioxopyrrolidin-3-yl]ethyl}benzamide]",27.4

# Same assay, conditions: 30 mg/kg orally, 90 min prior to capsaicin; cynomolgus NHP; compared to vehicle; p<0.00001
row,SMILES,group mean inhibition of capsaicin-induced blood flow increase [%]
1,"Cc1cc(CNC(=O)c2ccc([C@@H](C)[C@]3(C)CC(=O)NC3=O)cc2)cc(C)n1 [Example 1, N-[(2,6-dimethylpyridin-4-yl)methyl]-4-{(1R)-1-[(3S)-3-methyl-2,5-dioxopyrrolidin-3-yl]ethyl}benzamide]",40.6

# Biological target: T1, hCGRP (human calcitonin gene-related peptide) receptor (Homo sapiens, UniProt O60894+Q16602)
# T1 construct: SK-N-MC neuroblastoma cells (ATCC® HTB-10™) that endogenously express the hCGRP receptor; host or cells: SK-N-MC neuroblastoma cells
# T1 sequence (Q16602 23-461): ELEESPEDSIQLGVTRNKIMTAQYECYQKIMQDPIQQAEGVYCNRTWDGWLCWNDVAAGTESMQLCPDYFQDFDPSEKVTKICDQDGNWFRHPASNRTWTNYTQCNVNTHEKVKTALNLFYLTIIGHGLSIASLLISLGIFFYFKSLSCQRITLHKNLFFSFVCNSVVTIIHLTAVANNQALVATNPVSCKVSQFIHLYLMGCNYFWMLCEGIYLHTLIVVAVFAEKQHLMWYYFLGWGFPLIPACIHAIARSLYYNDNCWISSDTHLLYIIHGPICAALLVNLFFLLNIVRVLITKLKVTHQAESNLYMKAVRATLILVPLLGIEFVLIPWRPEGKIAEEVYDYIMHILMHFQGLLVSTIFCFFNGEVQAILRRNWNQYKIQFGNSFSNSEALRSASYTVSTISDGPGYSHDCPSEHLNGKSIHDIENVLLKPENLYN
# T1 sequence (O60894 27-148): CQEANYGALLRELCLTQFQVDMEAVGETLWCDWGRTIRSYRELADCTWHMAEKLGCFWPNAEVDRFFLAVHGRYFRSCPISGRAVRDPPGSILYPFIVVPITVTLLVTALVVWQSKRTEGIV
# Experiment: Inhibition of cAMP production by CGRP receptor antagonists (HTRF) in SK-N-MC cells
# Type: cell-based
# Settings: SK-N-MC cells endogenously expressing hCGRP receptor; human CGRP 0.8 nM as agonist; Kb=IC50/[1+([Agonist]/EC50)]; mean ± SEM
# Experimental: The hCGRP (human calcitonin gene-related peptide) receptor is functionally coupled to the Gas proteins. Stimulation of hCGRP results in an increased synthesis of intracellular cAMP and can be blocked by the addition of receptor antagonists. Receptor activity is thus a reflection of the amount of cAMP present within cells which can be detected using standard in vitro technology.
# Cultured SK-N-MC neuroblastoma cells (ATCC® HTB-10™) that endogenously express the hCGRP receptor are grown in Eagle's Minimum essential medium (HYCLONE™) supplemented with 10% heat-inactivated Fetal bovine serum (FBS; GIBCO®), Non-Essential Amino Acids (GIBCO®), 1 mM sodium pyruvate, 2 mM L-glutamine, 100 U/mL of penicillin, and 10 μg/mL of streptomycin to about 70% confluency. After providing fresh medium, the cells are incubated at 37° C. overnight. On the day of the assay, cells are detached using ACCUTASE® (MP Biomedicals), resuspended in assay buffer [Hank's Balanced Salt Solution/Dulbecco's phosphate-buffered saline with […] each of CaCl2 and MgCl2 mixed 1:2, 3.3 mM 4-(2-hydroxyethyl)-1-piperazineethanesulfonic acid, 0.03% bovine serum albumin, and 0.5 mM 1-methyl-3-isobutylxanthine (as inhibitor of […])], and seeded 3-5K/well into 384-well, poly-D-lysine coated white plates (BD Biosciences).
# For dose-response studies, compounds are serially diluted 1:3 in dimethyl sulfoxide and then 1:10 into assay buffer. Human CGRP (0.8 nM; Bachem) as a receptor-specific agonist for the hCGRP receptor is mixed with diluted compound and added to the cells as the challenge stimulant at their EC80 concentrations.
# The amount of intracellular cAMP is quantitated using HTRF technology (Cisbio) as per vendor instructions. Briefly, cAMP-d2 conjugate and anti-cAMP-cryptate conjugate in lysis buffer are incubated with the treated cells at RT for 90 min. The HTRF signal is immediately detected using an ENVISION® plate reader (Perkin-Elmer) to calculate the ratio of fluorescence at […]. The raw data are converted to cAMP amount (pmole/well) using a cAMP standard curve generated for each experiment. Relative EC50 values are calculated from the top-bottom range of the concentration response curve using a four-parameter logistic curve fitting program (ACTIVITYBASE® v5.3.1.22 or GENEDATA SCREENER® v12.0.4), and Kb values are estimated as agonist-corrected IC50 values using the equation: Kb=(IC50)/[1+([Agonist]/EC50)]. Estimated Kb values are reported as mean values±SEM, averaged from the number of runs (n).
# Following the procedure essentially as described above, the compounds of Examples 1-12 have a Kb measured at human CGRP as shown in Table 3.
row,SMILES,Kb [nM]
1,"Cc1cc(C)nc(CNC(=O)c2ccc([C@@H](C)[C@]3(C)CC(=O)NC3=O)cc2)c1 [Example 2, N-[(4,6-dimethyl-2-pyridyl)methyl]-4-[(l R)-1-[(3S)-3-methyl-2,5-dioxo-pyrrolidin-3-yl]ethyl]benzamide]",2.22 ± 1.47
2,"CCc1cc(CNC(=O)c2ccc([C@@H](C)[C@]3(C)CC(=O)NC3=O)cc2)cc(C)n1 [Example 10, N-[(2-ethyl-6-methylpyridin-4-yl)methyl]-4-{(1R)-1-[(3S)-3-methyl-2,5-dioxopyrrolidin-3-yl]ethyl}benzamide]",0.6 ± 0.0431
3,"Cc1cc(CNC(=O)c2ccc([C@@H](C)[C@]3(C)CC(=O)NC3=O)cc2)nc(C2CC2)c1 [Example 7, N-[(6-cyclopropyl-4-methyl-2-pyridyl)methyl]-4-[(1R)-1-[(3S)-3-methyl-2,5-dioxo-pyrrolidin-3-yl]ethyl]benzamide]",0.582 ± 0.228
4,"Cc1cc(CNC(=O)c2ccc([C@@H](C)[C@]3(C)CC(=O)NC3=O)cc2)cc(C2CCC2)n1 [Example 11, N-[(2-cyclobutyl-6-methylpyridin-4-yl)methyl]-4-{(1R)-1-[(3S)-3-methyl-2,5-dioxopyrrolidin-3-yl]ethyl}benzamide]",0.11 ± 0.011
5,"Cc1cc(C#N)nc(CNC(=O)c2ccc([C@@H](C)[C@]3(C)CC(=O)NC3=O)cc2)c1 [Example 3, N-[(6-cyano-4-methyl-2-pyridyl)methyl]-4-[(1R)-1-[(3S)-3-methyl-2,5-dioxo-pyrrolidin-3-yl]ethyl]benzamide]",1.51 ± 0.14
6,"Cc1cc(CNC(=O)c2ccc([C@@H](C)[C@]3(C)CC(=O)NC3=O)cn2)cc(C2CC2)n1 [Example 9, N-[(2-cyclopropyl-6-methyl-4-pyridyl)methyl]-5-[(1R)-1-[(3S)-3-methyl-2,5-dioxo-pyrrolidin-3-yl]ethyl]pyridine-2-carboxamide]",1.15 ± 0.181
7,"Cc1cc(CNC(=O)c2ccc([C@@H](C)[C@]3(C)CC(=O)NC3=O)cc2)cc(C)n1 [Example 1, N-[(2,6-dimethylpyridin-4-yl)methyl]-4-{(1R)-1-[(3S)-3-methyl-2,5-dioxopyrrolidin-3-yl]ethyl}benzamide]",0.546 ± 0.226
8,"Cc1cc(CNC(=O)c2ccc([C@@H](C)[C@]3(C)CC(=O)NC3=O)cc2)cc(C2CC2)n1 [Example 6, N-[(2-cyclopropyl-6-methyl-4-pyridyl)methyl]-4-[(1R)-1-[(3S)-3-methyl-2,5-dioxo-pyrrolidin-3-yl]ethyl]benzamide]",0.375 ± 0.172
9,"Cc1cc(CNC(=O)c2ccc([C@@H](C)[C@]3(C)CC(=O)NC3=O)cn2)cc(C)n1 [Example 8, N-[(2,6-dimethyl-4-pyridyl)methyl]-5-[(1R)-1-[(3S)-3-methyl-2,5-dioxo-pyrrolidin-3-yl]ethyl]pyridine-2-carboxamide]",1.25 ± 0.0045
10,"Cc1cc(CNC(=O)c2ccc([C@@H](C)[C@]3(C)CC(=O)NC3=O)cc2)cc(C#N)n1 [Example 4, N-[(2-cyano-6-methyl-4-pyridyl)methyl]-4-[(1R)-1-[(3S)-3-methyl-2,5-dioxo-pyrrolidin-3-yl]ethyl]benzamide]",23.5 ± 0.925
11,"Cc1cc(CNC(=O)c2ccc([C@@H](C)[C@]3(C)CC(=O)NC3=O)cc2)cc(C2CCCC2)n1 [Example 12, N-[(2-cyclopentyl-6-methylpyridin-4-yl)methyl]-4-{(1R)-1-[(3S)-3-methyl-2,5-dioxopyrrolidin-3-yl]ethyl}benzamide]",0.295 ± 0.056
12,"Cc1cc(CNC(=O)c2ccc([C@@H](C)[C@]3(C)CC(=O)NC3=O)cc2)cc(C(C)C)n1 [Example 5, N-[(2-isopropyl-6-methyl-4-pyridyl)methyl]-4-[(R)-1-[(3S)-3-methyl-2,5-dioxo-pyrrolidin-3-yl]ethyl]benzamide]",0.718 ± 0.0045
